The source made the active and inactive calls.
Tests used:
[1] = Luminescence Cell-Based Dose Response HTS to Identify Activators of Luciferase Translation or Activity in H4 […] Cells. [Related pubchem assays: 1829 (Project Summary), 1814 (Primary HTS)]; type: functional
[2] = target: T1, Replicative DNA helicase DnaB (Mycobacterium tuberculosis, UniProt P9WMR3); test: DnaB intein splicing inhibitors, dose response, biochemical, cell-free fluorescence (AID 449749); type: functional
T1 sequence (P9WMR3 whole entry): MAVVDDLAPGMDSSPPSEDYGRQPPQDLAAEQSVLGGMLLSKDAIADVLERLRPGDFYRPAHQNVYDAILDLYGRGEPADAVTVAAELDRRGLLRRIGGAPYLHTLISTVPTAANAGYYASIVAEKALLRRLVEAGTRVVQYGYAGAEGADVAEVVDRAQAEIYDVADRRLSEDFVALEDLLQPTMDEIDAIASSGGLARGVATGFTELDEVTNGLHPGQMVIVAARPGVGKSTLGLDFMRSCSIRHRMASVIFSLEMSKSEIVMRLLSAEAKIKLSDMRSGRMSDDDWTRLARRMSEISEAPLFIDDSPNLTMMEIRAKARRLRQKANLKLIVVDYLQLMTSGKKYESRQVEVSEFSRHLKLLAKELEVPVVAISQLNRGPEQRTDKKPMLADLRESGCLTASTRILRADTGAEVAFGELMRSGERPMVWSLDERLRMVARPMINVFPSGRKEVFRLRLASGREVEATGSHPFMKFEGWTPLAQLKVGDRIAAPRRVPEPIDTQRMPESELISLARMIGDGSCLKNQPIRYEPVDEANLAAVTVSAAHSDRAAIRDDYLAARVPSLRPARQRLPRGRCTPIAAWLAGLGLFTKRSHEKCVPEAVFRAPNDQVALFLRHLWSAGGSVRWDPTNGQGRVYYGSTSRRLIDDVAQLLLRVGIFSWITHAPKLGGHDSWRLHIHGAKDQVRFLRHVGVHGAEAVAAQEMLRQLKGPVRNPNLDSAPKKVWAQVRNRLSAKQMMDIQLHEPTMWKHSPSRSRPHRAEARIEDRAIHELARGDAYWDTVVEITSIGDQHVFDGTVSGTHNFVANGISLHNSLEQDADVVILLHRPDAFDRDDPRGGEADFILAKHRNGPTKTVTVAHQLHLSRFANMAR

[3] = target: Heat shock protein HSP 90-alpha (Homo sapiens, UniProt P07900); type: functional, organism-based
Protein RecA = target: T2, Protein RecA (Mycobacterium tuberculosis, UniProt P9WHJ3); test: Fluorescence Cell-Free Homogeneous Dose Retest to Identify Inhibitors of RecA-Intein Splicing Activity. [Related pubchem assays (depositor defined):AID2097, AID2223, AID489010, AID492950]; type: functional
T2 sequence (P9WHJ3 whole entry): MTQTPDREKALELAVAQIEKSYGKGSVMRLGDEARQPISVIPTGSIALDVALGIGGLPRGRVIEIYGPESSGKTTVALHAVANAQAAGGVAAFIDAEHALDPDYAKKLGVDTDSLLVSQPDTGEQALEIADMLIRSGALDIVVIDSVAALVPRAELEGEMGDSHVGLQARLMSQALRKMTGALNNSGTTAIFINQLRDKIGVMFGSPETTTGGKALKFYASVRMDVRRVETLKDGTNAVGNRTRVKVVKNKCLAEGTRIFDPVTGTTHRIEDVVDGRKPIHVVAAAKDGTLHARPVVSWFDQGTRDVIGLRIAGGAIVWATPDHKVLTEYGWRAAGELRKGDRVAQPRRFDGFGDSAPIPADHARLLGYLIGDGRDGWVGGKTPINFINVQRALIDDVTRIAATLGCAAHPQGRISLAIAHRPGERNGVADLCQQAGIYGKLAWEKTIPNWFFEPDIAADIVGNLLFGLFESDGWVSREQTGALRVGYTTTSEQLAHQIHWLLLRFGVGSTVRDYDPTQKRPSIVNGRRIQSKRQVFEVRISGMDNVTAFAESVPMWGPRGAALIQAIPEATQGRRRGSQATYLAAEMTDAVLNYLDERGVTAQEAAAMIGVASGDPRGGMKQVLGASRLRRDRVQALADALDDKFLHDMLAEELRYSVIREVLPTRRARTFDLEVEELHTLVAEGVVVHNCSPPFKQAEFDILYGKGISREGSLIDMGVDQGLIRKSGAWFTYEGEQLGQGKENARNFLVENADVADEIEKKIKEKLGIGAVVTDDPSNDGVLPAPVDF

[4] = HIV-1 Vif–A3G interaction blockers – biochemical, TR-FRET, GST-Vif 1-94, biotin-A3G peptide, dose response retest, primary screen (AID 1117319); type: functional;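 further: TR-FRET signal of purified GST-Vif binding a biotinylated A3G peptide; inhibitors lower the FRET signal by blocking Vif and A3G binding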
[5] = HIV-1 AD8 envelope cell-cell fusion blockers – cherry-pick, dose response (AID 652062); type: functional, cell-based;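 further: luciferase signal from cell-cell fusion driven by HIV-1 clade B AD8 Env; potency is for inhibitors of fusion seen as a drop in luminescence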
[6] = HPDE-C7 pancreatic duct cell viability loss – fluorescence, HTS (AID 430); type: functional, cell-based; conditions: Homo sapiens
[7] = viability loss of HPDE-C7K cells – cell-based, fluorescence, HTS, primary screen (AID 431); type: functional; conditions: Homo sapiens
H9c2 = test: cells; type: functional, cell-based; conditions: Rattus norvegicus, H9c2, Myocardium;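 further: confirmatory concentration-response retest of ultra-high-throughput screening hits for modulation of myocardial damage; cell death induced by hydrogen peroxide oxidative stress; compound pretreatment for 60 min then peroxide exposure for 2 h; potency is for protecting the cells against peroxide damage rather than for killing them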
[8] = system: Streptococcus sp. 'group A'; test: Streptococcus pyogenes SK(-)GAS viability under kanamycin – luminescence, BacTiterGlo, confirmation, counter-screen for streptokinase expression inhibitor project, dose response (AID 1900); type: functional, organism-based
Streptokinase A = target: T3, Streptokinase A (Streptococcus pyogenes serotype M1, UniProt P10520); test: viability-normalized secreted streptokinase activity reduction – plasminogen activation absorbance, OD405, dose response (AID 1914); type: functional, Streptococcus pyogenes M1 GAS;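 further: secreted streptokinase activity via plasminogen activation per viability signal from cell pellet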
T3 sequence (P10520 whole entry): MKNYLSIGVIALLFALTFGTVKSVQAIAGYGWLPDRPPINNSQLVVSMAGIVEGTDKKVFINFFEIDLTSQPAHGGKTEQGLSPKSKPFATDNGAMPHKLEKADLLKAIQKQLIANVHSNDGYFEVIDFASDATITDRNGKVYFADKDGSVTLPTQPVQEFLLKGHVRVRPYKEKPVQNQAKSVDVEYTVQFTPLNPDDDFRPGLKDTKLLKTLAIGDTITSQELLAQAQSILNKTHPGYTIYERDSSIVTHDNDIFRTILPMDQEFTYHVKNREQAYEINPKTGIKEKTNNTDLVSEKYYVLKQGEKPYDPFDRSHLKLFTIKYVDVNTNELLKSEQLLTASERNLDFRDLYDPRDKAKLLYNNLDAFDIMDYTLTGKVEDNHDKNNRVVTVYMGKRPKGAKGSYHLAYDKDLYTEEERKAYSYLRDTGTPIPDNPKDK

Streptococcus = test: GAS UMAA2166 growth inhibition – luminescence, BacTiterGlo, counter-screen for streptokinase expression inhibitor project, dose response (AID 1915); type: functional, organism-based;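 further: potency for reduction of bacterial viability or growth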
[9] = Luminescence Cell-Based Dose Retest to Confirm Inhibitors of Cancer Stem Cells. [Related pubchem assays (depositor defined):AID2717, AID2721]; type: functional, Homo sapiens; conditions: Homo sapiens
[10] = target: T4, DNA repair protein RAD52 homolog (Homo sapiens, UniProt P43351); type: functional, biochemical
T4 sequence (P43351 whole entry): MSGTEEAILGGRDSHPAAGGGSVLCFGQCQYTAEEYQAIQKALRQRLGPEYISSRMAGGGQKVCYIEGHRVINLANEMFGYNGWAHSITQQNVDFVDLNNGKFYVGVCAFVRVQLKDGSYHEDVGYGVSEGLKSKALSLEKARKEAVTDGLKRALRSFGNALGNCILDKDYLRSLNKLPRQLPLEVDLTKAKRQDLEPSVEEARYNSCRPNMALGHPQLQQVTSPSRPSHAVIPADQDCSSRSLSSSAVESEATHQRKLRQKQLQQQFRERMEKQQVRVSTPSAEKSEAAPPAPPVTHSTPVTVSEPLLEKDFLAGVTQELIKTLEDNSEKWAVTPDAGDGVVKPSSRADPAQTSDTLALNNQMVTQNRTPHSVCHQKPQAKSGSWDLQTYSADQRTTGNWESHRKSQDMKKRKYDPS

[11] = blockers of HIV-1 envelope-mediated cell-cell fusion – cherry-pick, dose response (AID 652057); type: functional, cell-based
Fatty acid synthase [12] = target: T5, Fatty acid synthase (Homo sapiens, UniProt P49327); test: inhibition of human FAS-TE enzyme activity – biochemical, endpoint fluorescence intensity, uHTS hits, dose response (AID 624327); type: functional;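 further: fluorescence from hydrolysis of an O-methyl fluorescein acyl ester substrate by the enzyme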
T5 sequence (P49327 whole entry): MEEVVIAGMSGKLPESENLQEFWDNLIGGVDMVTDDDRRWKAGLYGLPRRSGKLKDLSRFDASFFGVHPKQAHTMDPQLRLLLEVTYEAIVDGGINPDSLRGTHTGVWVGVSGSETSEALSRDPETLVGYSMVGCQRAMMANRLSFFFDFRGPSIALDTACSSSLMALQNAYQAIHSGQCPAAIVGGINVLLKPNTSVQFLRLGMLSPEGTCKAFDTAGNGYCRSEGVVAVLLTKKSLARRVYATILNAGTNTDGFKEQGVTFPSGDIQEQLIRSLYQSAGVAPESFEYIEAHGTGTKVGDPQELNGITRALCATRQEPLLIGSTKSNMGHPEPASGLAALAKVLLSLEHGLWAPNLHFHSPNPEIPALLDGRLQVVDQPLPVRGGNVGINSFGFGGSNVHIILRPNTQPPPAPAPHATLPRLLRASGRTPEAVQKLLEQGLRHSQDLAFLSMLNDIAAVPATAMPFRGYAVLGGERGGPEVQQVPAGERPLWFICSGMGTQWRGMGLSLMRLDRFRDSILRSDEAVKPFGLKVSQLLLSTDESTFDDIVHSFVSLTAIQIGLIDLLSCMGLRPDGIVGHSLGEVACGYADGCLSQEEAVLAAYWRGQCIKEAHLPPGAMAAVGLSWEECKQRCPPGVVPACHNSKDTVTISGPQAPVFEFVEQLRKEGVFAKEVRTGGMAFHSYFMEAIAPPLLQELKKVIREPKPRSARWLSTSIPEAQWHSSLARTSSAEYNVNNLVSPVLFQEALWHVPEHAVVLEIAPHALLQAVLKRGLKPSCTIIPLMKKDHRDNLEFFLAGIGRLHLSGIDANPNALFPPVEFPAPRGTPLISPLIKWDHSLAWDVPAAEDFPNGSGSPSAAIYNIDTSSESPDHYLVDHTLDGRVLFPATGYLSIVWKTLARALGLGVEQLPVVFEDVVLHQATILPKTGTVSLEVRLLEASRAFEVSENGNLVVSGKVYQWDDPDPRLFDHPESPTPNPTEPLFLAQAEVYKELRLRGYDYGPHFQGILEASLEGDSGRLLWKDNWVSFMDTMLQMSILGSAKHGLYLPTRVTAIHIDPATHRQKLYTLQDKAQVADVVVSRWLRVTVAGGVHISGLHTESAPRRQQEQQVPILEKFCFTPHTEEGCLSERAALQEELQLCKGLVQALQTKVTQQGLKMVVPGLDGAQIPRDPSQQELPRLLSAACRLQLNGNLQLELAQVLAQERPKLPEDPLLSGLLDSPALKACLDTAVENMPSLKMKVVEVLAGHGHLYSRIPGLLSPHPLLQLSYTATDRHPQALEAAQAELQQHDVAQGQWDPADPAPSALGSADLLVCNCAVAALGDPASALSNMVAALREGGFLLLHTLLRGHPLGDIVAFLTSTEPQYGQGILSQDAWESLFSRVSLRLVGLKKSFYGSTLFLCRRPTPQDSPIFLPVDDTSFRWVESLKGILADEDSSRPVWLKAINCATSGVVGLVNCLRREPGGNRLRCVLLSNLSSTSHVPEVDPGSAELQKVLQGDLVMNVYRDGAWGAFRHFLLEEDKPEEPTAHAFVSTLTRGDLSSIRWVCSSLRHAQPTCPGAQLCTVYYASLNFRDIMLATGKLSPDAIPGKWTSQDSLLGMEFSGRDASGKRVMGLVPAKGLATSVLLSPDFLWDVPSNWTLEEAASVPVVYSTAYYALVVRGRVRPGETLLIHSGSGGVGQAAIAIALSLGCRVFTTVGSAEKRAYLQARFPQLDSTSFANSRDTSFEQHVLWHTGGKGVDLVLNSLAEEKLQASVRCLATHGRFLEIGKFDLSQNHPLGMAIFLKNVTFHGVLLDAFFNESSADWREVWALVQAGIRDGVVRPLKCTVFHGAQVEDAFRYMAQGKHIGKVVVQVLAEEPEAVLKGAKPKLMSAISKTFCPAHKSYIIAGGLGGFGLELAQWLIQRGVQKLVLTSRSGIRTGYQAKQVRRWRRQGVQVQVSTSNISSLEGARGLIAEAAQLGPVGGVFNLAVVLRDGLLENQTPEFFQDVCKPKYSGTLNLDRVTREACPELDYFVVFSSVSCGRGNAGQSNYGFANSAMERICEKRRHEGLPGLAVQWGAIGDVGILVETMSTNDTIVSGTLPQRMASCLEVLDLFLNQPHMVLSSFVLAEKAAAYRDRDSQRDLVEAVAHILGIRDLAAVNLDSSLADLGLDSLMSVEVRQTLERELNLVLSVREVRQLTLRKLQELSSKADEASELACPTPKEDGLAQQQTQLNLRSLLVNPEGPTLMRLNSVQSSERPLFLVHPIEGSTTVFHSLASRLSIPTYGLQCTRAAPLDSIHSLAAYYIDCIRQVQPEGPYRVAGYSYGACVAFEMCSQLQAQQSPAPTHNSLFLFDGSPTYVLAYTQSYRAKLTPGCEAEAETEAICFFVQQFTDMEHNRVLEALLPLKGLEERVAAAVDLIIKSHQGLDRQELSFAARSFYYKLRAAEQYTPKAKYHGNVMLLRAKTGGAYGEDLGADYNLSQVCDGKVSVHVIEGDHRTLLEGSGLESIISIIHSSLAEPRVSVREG

Fatty acid synthase [13] = target: T5, Fatty acid synthase; test: inhibition of human FAS-TE enzyme activity – biochemical, kinetic fluorescence intensity, dose response (AID 624326); type: functional;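 further: rate of fluorescence rise from hydrolysis of a fluorogenic O-methyl fluorescein ester substrate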
SN12K1 = test: cells; type: functional; conditions: Homo sapiens
[14] = target: T6, Calpain-2 catalytic subunit (Sus scrofa, UniProt P43367); test: m-calpain protease blockers, concentration series – biochemical, fluorogenic peptide substrate, dose response (AID 1420); type: functional
T6 sequence (P43367 whole entry): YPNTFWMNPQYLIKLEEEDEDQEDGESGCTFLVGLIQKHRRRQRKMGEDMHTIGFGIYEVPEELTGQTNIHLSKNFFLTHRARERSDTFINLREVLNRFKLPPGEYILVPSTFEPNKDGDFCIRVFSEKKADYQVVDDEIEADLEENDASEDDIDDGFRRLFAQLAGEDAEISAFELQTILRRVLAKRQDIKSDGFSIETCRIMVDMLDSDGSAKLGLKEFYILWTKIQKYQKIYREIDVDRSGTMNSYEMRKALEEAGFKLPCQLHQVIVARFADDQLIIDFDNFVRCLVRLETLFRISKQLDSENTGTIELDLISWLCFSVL

[15] = Trypanosoma cruzi growth suppression in host cells – NIH3T3 host cells, beta-gal luminescence, confirmation (AID 2044); type: functional, cell-based;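 further: intracellular parasites grown in NIH/3T3 mouse fibroblasts as host cells; luminescent beta-galactosidase reporter signal from transgenic T. cruzi replicating inside host cells; inhibitors lower the luminescence signal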
[16] = NIH3T3 cell viability loss – ATP luminescence, mouse fibroblasts, counter-screen, dose response (AID 2010); type: functional, cell-based;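 further: cells exposed to compound for about 90 hours before reading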

SMILES: COc1ccc(Nc2cnn(-c3nc4ccccc4s3)c(=O)c2Cl)cc1
- EC50 [1]: 0.198 µM (active)
- AC50 [2]: > 380 µM (inactive)
- AC50 [3]: 3.21 µM (active)
- EC50 (Protein RecA): 4.01 µM (active)

SMILES: CCOC(=O)c1c(C)[nH]c(C)c1C(=O)COC(=O)c1cccc(S(=O)(=O)NC)c1
- IC50 [4]: > 100 µM (active)

SMILES: O=C(COc1ccc(-n2cnnn2)cc1)Nc1ccc(F)c(F)c1
- AC50 [5]: 1.42 µM (active)

SMILES: COc1cccc(C2=NC(C)(C)NC(c3ccccc3O)C2)c1 (stereo not given)
- EC50 [6]: 11.7 µM (active)
- EC50 [7]: 12.5 µM (active)

SMILES: Cc1ccc2nsnc2c1S(=O)(=O)N(Cc1ccco1)Cc1cc2cccc(C)c2nc1O
- IC50 (H9c2): > 79 µM (inactive)
- IC50 [4]: > 100 µM (active)

SMILES: Cc1cccc(N2CCN(C(=O)c3cc4n(n3)C(C(F)(F)F)CC(c3ccco3)N4)CC2)c1C (stereo not given)
- EC50 [8]: 3.02 µM (active)
- EC50 (Streptokinase A): 16.7 µM (active)
- EC50 [6]: > 20 µM (not active)
- EC50 [7]: > 20 µM (not active)
- EC50 (Streptococcus): 29.1 µM (active)
- AC50 [9]: 1.84 µM (active)

SMILES: CCN1CCN(Cc2ccc(NC(=O)c3ccc(C)c(NC(=O)c4csc(-c5ccncc5)n4)c3)cc2C(F)(F)F)CC1
- AC50 [10]: 33.6 µM (active)

SMILES: CCC1CCC2(CC1)NC(=O)N(CC(=O)Nc1ccc(OC)c(Cl)c1)C2=O (stereo not given)
- IC50 [4]: > 100 µM (active)

SMILES: CC(OC(=O)c1ccc([N+](=O)[O-])o1)C(=O)NC1CCCCC1C (stereo not given)
- IC50 [4]: > 100 µM (active)

SMILES: CCCCNC(=O)C[C@H]1C[C@@]2(C(=O)OC)C(=C[C@H](C(C)(C)C)O[C@@H]2C)N(Cc2ccc3c(c2)OCO3)C1=O
- AC50 [11]: 19.8 µM (active)

SMILES: CN(C)CCCNC(=O)C[C@H]1C[C@H](C(=O)N2CCOCC2)[C@@]2(CCC3CCCC3)c3[nH]c4cc(-c5ccco5)ccc4c3CCN2C1=O
- IC50 (Fatty acid synthase [12]): 5.74 µM (active)
- IC50 (Fatty acid synthase [13]): 5.89 µM (active)
- AC50 [10]: 11.2 µM (active)

SMILES: Nc1c(C(=O)NCCc2ccccc2)c2nc3ccccc3nc2n1CCN1CCOCC1
- EC50 [6]: 9.43 µM (active)
- EC50 [7]: 10.4 µM (active)

SMILES: C[C@]12CC[C@@H]3c4ccc(OC(=O)N(CCCl)CCCl)cc4CC[C@H]3[C@@H]1CC[C@@H]2O [ESTRAMUSTINE]
- GI50 (SN12K1): 0.025 µM (active)

SMILES: Clc1ccc(-c2nnnn2-c2ccc(Cl)c(Cl)c2)cc1Cl
- EC50 [8]: 9.57 µM (active)
- EC50 (Streptokinase A): 8.28 µM (active)
- IC50 [14]: < 0.4 µM (not active)
- EC50 (Streptococcus): > 150 µM (not active)
- AC50 [9]: 3.97 µM (active)
- IC50 [4]: > 100 µM (active)

SMILES: c1ccc(CN2CCN(c3nc(-c4ccccc4)nc(-n4ccnc4)n3)CC2)cc1
- EC50 [6]: 9.94 µM (active)
- EC50 [15]: 2.31 µM (active)
- EC50 [7]: 11.9 µM (active)
- EC50 [16]: > 60 µM (not active)

SMILES: Cc1ccc(C(=O)N2CCN(c3ccccc3Cl)CC2)cc1[N+](=O)[O-]
- IC50 [14]: > 50 µM (not active)
- AC50 [3]: 4.18 µM (active)

SMILES: O=C1Nc2cc(Cl)ccc2C1(N1CCNCC1)C(F)(F)F (stereo not given)
- EC50 [6]: > 20 µM (not active)
- EC50 [7]: > 20 µM (not active)
